# US20250145566A1, “PHENETHYLAMINE DERIVATIVES, COMPOSITIONS, AND METHODS OF USE” (Cybin IRL Limited, priority 2022, published 2025)
# Like-named read-outs stand apart in the source and are kept apart here.
# Key:
# 5-HT2A (h) [1] = target: T1, 5-HT2A (h) (Homo sapiens, UniProt P28223); assay: 5-HT2A (h) agonist radioligand [125I](±)DOI binding
# T1 construct: expressed in transfected cells; host or cells: HEK-293 cells
# 5-HT2B (h) [2] = target: T2, 5-HT2B (h) (Homo sapiens, UniProt P41595); assay: 5-HT2B (h) agonist radioligand [125I](±)DOI binding
# T2 construct: expressed in transfected cells; host or cells: CHO cells
# T2 sequence (P41595 whole entry): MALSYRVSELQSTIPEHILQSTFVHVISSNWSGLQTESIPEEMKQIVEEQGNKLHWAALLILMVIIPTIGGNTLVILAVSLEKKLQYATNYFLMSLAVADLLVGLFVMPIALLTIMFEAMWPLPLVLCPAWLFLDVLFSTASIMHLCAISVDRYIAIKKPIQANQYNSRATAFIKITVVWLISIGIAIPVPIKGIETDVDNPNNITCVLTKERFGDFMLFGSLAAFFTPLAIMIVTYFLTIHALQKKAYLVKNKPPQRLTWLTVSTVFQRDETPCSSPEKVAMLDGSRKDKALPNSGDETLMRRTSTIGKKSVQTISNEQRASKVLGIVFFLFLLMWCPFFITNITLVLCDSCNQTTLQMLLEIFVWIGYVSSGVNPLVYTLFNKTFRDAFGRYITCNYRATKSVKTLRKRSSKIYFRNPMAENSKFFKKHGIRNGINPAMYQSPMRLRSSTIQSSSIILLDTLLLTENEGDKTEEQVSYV
# Description: (§1) Samples were then analyzed as described above.
# 5-HT2C (h) [3] = target: T3, 5-HT2C (h) (Homo sapiens, UniProt P28335); assay: 5-HT2C (h) agonist radioligand [125I](±)DOI binding
# T3 construct: expressed in transfected cells; host or cells: HEK-293 cells
# T3 sequence (P28335 33-458): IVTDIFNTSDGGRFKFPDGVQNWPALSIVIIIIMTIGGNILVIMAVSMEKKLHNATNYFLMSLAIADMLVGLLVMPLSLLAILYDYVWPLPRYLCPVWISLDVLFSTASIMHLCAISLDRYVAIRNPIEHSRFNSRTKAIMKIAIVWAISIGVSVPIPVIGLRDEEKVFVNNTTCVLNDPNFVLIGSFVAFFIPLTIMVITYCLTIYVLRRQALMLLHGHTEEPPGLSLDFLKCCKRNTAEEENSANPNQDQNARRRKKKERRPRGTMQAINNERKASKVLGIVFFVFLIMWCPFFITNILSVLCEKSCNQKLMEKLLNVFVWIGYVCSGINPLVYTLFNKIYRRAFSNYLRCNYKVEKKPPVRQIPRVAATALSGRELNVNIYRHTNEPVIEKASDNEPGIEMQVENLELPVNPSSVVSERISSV
# Description: as §1
# 5-HT2A (h) [4] = target: T1, 5-HT2A (h); details: read-out: Binding 5-HT2A Ki; antagonist radioligand; literature, racemic; cited from earlier work
# [5] = target: T4, norepinephrine transporter (h) (Homo sapiens, UniProt P23975); details: read-out: Binding NET Ki; literature, racemic; cited from earlier work
# T4 construct: expressed in transfected cells; host or cells: CHO cells
# T4 sequence (P23975 whole entry): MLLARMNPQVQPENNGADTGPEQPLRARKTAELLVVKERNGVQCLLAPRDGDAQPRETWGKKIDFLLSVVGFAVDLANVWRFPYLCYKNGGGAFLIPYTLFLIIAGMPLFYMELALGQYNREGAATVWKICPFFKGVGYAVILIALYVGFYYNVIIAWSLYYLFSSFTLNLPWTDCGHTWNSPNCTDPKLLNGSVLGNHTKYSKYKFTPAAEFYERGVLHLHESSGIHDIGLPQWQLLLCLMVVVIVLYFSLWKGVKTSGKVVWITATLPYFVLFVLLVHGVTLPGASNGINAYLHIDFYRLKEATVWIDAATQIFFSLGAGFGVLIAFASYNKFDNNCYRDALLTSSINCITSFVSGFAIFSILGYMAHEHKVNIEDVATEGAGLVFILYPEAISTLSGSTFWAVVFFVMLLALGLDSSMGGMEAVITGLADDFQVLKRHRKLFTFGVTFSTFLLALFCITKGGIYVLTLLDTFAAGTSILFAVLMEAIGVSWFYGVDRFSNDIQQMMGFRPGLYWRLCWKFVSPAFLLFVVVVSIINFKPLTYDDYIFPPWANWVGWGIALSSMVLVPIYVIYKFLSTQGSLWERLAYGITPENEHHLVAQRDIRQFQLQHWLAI
# Dopamine transporter [6] = target: T5, Dopamine transporter (Homo sapiens, UniProt Q01959); details: variable numbers in the literature, racemic, cited from earlier work
# T5 sequence (Q01959 whole entry): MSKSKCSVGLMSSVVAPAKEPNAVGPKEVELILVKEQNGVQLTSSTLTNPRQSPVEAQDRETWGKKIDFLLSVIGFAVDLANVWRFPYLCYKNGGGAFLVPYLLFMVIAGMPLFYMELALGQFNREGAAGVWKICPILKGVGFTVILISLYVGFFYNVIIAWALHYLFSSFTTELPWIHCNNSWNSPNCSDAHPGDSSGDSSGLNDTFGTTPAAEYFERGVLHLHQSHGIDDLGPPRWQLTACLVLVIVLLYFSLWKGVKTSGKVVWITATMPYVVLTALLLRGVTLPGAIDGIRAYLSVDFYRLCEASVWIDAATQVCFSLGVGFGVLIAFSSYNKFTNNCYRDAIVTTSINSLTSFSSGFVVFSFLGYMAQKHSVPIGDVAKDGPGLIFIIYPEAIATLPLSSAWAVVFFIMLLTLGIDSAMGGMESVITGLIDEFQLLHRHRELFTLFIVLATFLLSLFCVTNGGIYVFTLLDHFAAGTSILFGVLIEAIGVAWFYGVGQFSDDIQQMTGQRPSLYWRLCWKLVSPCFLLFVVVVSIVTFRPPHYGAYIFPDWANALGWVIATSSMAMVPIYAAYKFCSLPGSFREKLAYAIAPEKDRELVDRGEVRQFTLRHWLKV
# 5-HT transporter (h) [7] = target: T6, 5-HT transporter (h) (Homo sapiens, UniProt P31645); details: read-out: Binding SERT Ki; literature, racemic; cited from earlier work
# T6 construct: expressed in transfected cells; host or cells: CHO cells
# T6 sequence (P31645 whole entry): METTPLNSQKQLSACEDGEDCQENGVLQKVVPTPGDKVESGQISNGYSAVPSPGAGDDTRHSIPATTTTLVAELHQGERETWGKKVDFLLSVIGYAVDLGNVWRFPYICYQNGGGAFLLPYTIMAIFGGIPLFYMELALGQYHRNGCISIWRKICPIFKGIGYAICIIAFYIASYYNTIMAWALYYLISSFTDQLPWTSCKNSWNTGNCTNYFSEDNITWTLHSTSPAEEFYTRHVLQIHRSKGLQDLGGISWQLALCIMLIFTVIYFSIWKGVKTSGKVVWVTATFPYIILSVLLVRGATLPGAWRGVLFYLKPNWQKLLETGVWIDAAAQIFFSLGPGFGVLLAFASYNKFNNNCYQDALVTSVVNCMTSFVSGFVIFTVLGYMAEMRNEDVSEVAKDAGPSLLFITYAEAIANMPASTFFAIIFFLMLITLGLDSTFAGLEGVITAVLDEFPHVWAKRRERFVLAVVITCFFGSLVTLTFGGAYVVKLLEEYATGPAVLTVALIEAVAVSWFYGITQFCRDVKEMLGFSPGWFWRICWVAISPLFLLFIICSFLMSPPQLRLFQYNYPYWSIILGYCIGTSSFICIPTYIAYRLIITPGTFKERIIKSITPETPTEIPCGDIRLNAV
# [8] = target: T7, Norepinephrine transporter (Homo sapiens, UniProt P23975); details: racemic, cited from earlier work
# T7 sequence (P23975 whole entry): as the sequence (P23975 whole entry) above
# 5-HT transporter (h) [9] = target: T6, 5-HT transporter (h); assay: 5-HT transporter (h) binding, [3H]imipramine
# 5-HT2A (h) [10] = target: T1, 5-HT2A (h); details: literature, single enantiomers, cited from earlier work; for EC50: read-out: Function 5-HT2A EC50
# 5-HT2C (h) [11] = target: T3, 5-HT2C (h); details: literature, single enantiomers; cited from earlier work
# 5-HT2A receptor = target: T8, 5-HT2A receptor (Homo sapiens, UniProt P28223); details: literature value (Rickli et al. 2016); cited from earlier work
# T8 construct: host or cells: HEK293 (ATCC CRL-1573), transient, membranes
# T8 sequence (P28223 whole entry): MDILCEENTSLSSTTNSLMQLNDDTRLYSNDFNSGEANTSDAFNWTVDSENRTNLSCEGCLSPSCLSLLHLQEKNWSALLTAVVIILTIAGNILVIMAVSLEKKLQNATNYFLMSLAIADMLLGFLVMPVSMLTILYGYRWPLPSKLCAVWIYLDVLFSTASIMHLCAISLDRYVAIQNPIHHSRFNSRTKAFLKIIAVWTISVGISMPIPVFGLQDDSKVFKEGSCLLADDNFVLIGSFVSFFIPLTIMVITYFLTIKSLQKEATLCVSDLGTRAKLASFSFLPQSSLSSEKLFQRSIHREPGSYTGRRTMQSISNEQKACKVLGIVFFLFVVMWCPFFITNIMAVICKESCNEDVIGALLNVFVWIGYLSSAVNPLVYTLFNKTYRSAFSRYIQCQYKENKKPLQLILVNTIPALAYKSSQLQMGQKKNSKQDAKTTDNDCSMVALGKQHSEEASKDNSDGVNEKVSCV
# dopamine transporter (h) = target: T9, dopamine transporter (h) (Homo sapiens, UniProt Q01959); assay: dopamine transporter (h) binding, [3H]BTCP
# T9 construct: expressed in transfected cells; host or cells: CHO cells
# T9 sequence (Q01959 whole entry): as the sequence (Q01959 whole entry) above
# 5-HT2B (h) [12] = target: T2, 5-HT2B (h); assay: 5-HT2B (h) agonist effect, IP1 HTRF functional assay; type: cell-based
# 5-HT2A (h) [13] = target: T1, 5-HT2A (h); assay: 5-HT2A (h) agonist effect, IP1 HTRF functional assay; type: cell-based
# Serotonin transporter = target: T10, Serotonin transporter (Rattus norvegicus, UniProt P31652); assay: Serotonin transporter uptake, rat brain synaptosomes; type: biochemical
# T10 construct: from tissue
# T10 sequence (P31652 whole entry): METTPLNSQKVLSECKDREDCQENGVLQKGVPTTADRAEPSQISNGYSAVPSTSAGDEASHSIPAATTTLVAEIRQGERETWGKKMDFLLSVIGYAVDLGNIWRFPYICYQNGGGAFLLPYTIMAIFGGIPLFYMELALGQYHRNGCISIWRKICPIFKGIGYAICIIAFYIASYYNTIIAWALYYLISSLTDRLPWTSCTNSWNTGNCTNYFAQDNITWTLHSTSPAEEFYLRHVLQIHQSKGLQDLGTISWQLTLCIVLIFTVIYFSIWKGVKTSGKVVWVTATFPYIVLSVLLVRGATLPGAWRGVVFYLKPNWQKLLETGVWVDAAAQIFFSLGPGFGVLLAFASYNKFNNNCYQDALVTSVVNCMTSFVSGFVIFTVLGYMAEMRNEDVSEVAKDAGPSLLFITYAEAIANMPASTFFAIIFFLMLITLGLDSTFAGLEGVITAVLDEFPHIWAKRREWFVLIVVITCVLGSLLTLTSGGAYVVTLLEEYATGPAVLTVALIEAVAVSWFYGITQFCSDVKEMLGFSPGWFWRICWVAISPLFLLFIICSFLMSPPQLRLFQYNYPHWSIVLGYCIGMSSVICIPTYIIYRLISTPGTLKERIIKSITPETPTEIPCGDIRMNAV
# [14] = target: T4, norepinephrine transporter (h); assay: norepinephrine transporter (h) binding, [3H]nisoxetine; details: at 10 μM; table calls these values “No Binding”
# 5-HT2C (h) [15] = target: T3, 5-HT2C (h); assay: 5-HT2C (h) agonist effect, IP1 HTRF functional assay; type: cell-based
# [16] = target: T7, Norepinephrine transporter; assay: Norepinephrine transporter uptake (h); type: cell-based
# Dopamine transporter [17] = target: T5, Dopamine transporter; assay: Dopamine transporter uptake (h); type: cell-based
# [18] = Hill coefficient, reference compound result
# [19] = agonist radioligand [125I](±)DOI, reference compound result
# [20] = read-out: Function DAT IC50, lower end of literature range
# [21] = read-out: Function DAT IC50, upper end of literature range
# T1 sequence (P28223 whole entry): as the sequence (P28223 whole entry) above
smiles,measurement,setting,value
COc1cc(CC(C)N)c(OC)cc1I (racemic) [(±)DOI],nH,5-HT2A (h) [1]; [18],1.0
same,nH,5-HT2B (h) [2]; [18],1.1
same,IC50,5-HT2B (h) [2]; [19],3.8 nM
same,Ki,5-HT2B (h) [2]; [19],1.9 nM
same,nH,5-HT2C (h) [3]; [18],0.9
same,IC50,5-HT2C (h) [3]; [19],0.37 nM
same,Ki,5-HT2C (h) [3]; [19],0.33 nM
"CNC(C)Cc1ccc2c(c1)OCO2 (centres unmarked) [MDMA, 3,4-methylenedioxymethamphetamine]",Ki,5-HT2A (h) [4],7800 nM
same,Ki,[5],> 10000 nM
same,IC50,Dopamine transporter [6]; [20],≥ 410 nM
same,IC50,Dopamine transporter [6]; [21],≤ 17000 nM
same,Ki,5-HT transporter (h) [7],> 10000 nM
same,IC50,"[8]; read-out: Function NET IC50, lower end of literature range, variable numbers in the literature",≥ 108 nM
same,IC50,"[8]; read-out: Function NET IC50, upper end of literature range, variable numbers in the literature",≤ 6600 nM
"CN(C)CCCN1c2ccccc2CCc2ccccc21 [imipramine, reference compound]",nH,5-HT transporter (h) [9]; [18],1.2
"CC(N)Cc1ccc2c(c1)OCO2 (centres unmarked) [MDA, 3,4-methylenedioxyamphetamine]",IC50,Dopamine transporter [6]; [20],≥ 890 nM
same,IC50,Dopamine transporter [6]; [21],≤ 21000 nM
same,IC50,"[8]; read-out: Function NET IC50, literature",~300 nM
CN[C@H](C)Cc1ccc2c(c1)OCO2 [R-MDMA],Function 5-HT2A EMAX,5-HT2A (h) [10],EMAX = 21%
same,EC50,5-HT2A (h) [10],3100 nM
same,Function 5-HT2C EMAX,5-HT2C (h) [11],EMAX = 27%
CN[C@@H](C)Cc1ccc2c(c1)OCO2 [S-MDMA],Function 5-HT2A EMAX,5-HT2A (h) [10],EMAX = 9%
same,EC50,5-HT2A (h) [10],10300 nM
same,Function 5-HT2C EMAX,5-HT2C (h) [11],EMAX = 53%
"COc1cc(CCN)cc(OC)c1OC [Reference Compound 1, 3,4,5-trimethoxyphenethylamine]",Ki,5-HT2A receptor,6300 nM
"c1ccc2sc(C3(N4CCCCC4)CCCCC3)cc2c1 [BTCP, reference compound]",nH,dopamine transporter (h); [18],1.0
CC(N)Cc1ccc2c(c1)OCS2 (racemic) [II-16 (racemic)],EC50,"5-HT2B (h) [12]; Gq-IP1, estimated from four concentrations, read-out: Function 5-HT2B Estimated EC50",< 500 nM
same,Emax at 1 µM,"5-HT2B (h) [12]; at 1 μM, relative to 5-HT, read-out: Function 5-HT2B EMAX",100%
same,"Function 5-HT2B (Gq-IP1, efficacy relative to 5-HT), agonist type","5-HT2B (h) [12]; tested at 1, 3, 10, 100 μM",Full agonist -
same,"Binding 5-HT2A (agonist radioligand), % competition",5-HT2A (h) [1]; at 10 μM,94.4% competition
same,EC50,"5-HT2A (h) [13]; IP-1, estimated from four concentrations, read-out: Function 5-HT2A Estimated EC50",2500 nM
same,Emax at 10 µM,"5-HT2A (h) [13]; at 10 μM, relative to 5-HT, read-out: Function 5-HT2A EMAX",89.8%
same,"Function 5-HT2A (IP-1, efficacy relative to 5-HT), agonist type","5-HT2A (h) [13]; tested at 1, 3, 10, 100 μM",Nearly full agonist -
same,inhibition at up to 100 µM,"Serotonin transporter; across dose range tested (1, 3, 10, 100 μM), read-out: Function SERT, inhibition of SERT",95.3 to 106%
same,IC50,"Serotonin transporter; blocking reuptake of 5-HT, read-out: Function SERT Estimated IC50",< 200 nM
same,"Function SERT (blocking reuptake of 5-HT), efficacy in words","Serotonin transporter; tested at 1, 3, 10, 100 μM","Full efficacy,"
same,"Binding 5-HT2B (agonist radioligand), % competition",5-HT2B (h) [2]; at 10 μM,100.1% competition
same,"Binding NET (antagonist radioligand), % competition",[14],25.2% competition
same,EC50,"5-HT2C (h) [15]; Gq-IP1, estimated from four concentrations, read-out: Function 5-HT2C Estimated EC50",< 800 nM
same,Emax at 10 µM,"5-HT2C (h) [15]; at 10 μM, relative to 5-HT, read-out: Function 5-HT2C EMAX",99.3%
same,"Function 5-HT2C (Gq-IP1, efficacy relative to 5-HT), agonist type","5-HT2C (h) [15]; tested at 1, 3, 10, 100 μM",Full agonist -
same,inhibition at 10 µM,"[16]; at 10 μM, read-out: Function NET, inhibition of NET",93.5%
same,IC50,"[16]; blocking reuptake of NE, read-out: Function NET Estimated IC50",< 1000 nM
same,"Function NET (blocking reuptake of NE), efficacy in words","[16]; tested at 1, 10, 100 μM","Near full efficacy,"
same,"Binding 5-HT2C (agonist radioligand), % competition",5-HT2C (h) [3]; at 10 μM,98.4% competition
same,inhibition at 100 µM,"Dopamine transporter [17]; at 100 μM, read-out: Function DAT, inhibition of DAT",99.1%
same,IC50,"Dopamine transporter [17]; blocking reuptake of DA, read-out: Function DAT Estimated IC50",~1000 nM
same,"Function DAT (blocking reuptake of DA), efficacy in words","Dopamine transporter [17]; tested at 1, 10, 100 μM","Full efficacy,"
same,"Binding DAT (antagonist radioligand), % competition","dopamine transporter (h); at 10 μM, table calls these values “No Binding”",15.7% competition
same,"Binding SERT (antagonist radioligand), % competition",5-HT transporter (h) [9]; at 10 μM,68.1% competition
